Reference: patent publication US11649228B2, “Zinc indicators for cellular imaging” (The Board of Regents of the University of Texas System, priority 2018, dated 2023)

How the values were obtained:
[1] = Photochemical characterization of ZIGIRs in vitro (absorption, emission, quantum yield); assay type: physicochemical; details: for ε (extinction coefficient): in M-1·cm-1 (unit assumed); for ϕfl × ε (fluorescence brightness): in M^-1 cm^-1 (unit assumed)
Protocol: (§1) UV-Vis spectra were recorded in a 1-cm path quartz cell on a Shimadzu 2401 PC spectrometer. Fluorescence excitation and emission spectra were recorded on a Fluorolog 3 spectrometer (Jobin-Yvon Horiba, Edison, N.J.). Zinc titration was performed by adding ZIGIRs (0.5 μM final concentration) to buffered Zn^2+ solutions containing 100 mM HEPES (pH 7.4). Nitrilotriacetic acid (NTA, 10 mM) and varying concentrations of ZnSO4 (0-9 mM) were mixed to reach free Zn^2+ concentrations between 0.1 nM and 40 nM (Li et al., 2011). Zn^2+ concentrations above 40 nM were controlled by iminodiacetate (IDA, 10 mM) and varying amounts of ZnSO4 (0-9.7 mM) in 100 mM HEPES (pH 7.4; Sasaki et al., 2011). To determine Zn^2+ binding dissociation constants (Kd(Zn^2+)), the Zn^2+ titration data were fitted to the least square exponential equation (Prism 7). Fluorescence quantum yields of ZIGIRs at pH 7.5 were determined using rhodamine 6G as the reference (Φfl=0.94 in MeOH; Magde et al., 2002). An example in shown FIGS. 11A0B. To examine the pH sensitivity of ZIGIRs, the fluorescence emission spectra was recorded from pH 3-9.4 in either nominally Zn^2+-free solutions containing 5 mM iminodiacetate or in 25 μM ZnSO4 solutions. The pH was controlled with 10 mM pH buffers including chloroacetic acid (pH 3.1), acetate (pH 4.1 and 5.0), 2-morpholinoethanesulfonic acid (MES, pH 6.14), HEPES (pH 7.5) and N-cyclohexyl-2-aminoethanesulfonic acid (CHES, pH 9.4).

MIN-6 cells = assay: Correlation of ZIGIR-2 labeling with insulin immunofluorescence; assay type: cell-based, mouse; details: wide-field microscopy
Protocol: Confocal imaging of ZIGIR-2 labeled MIN-6 cells appeared to be heterogenous, with numerous ZIGIR-2 positive puncta in some cells while few in others (FIG. 6B). The MIN-6 cell is a transformed β-cell line derived from a mouse insulinoma. […] To investigate how ZIGIR-2 staining correlates with the distribution of insulin granules, insulin immunofluorescence was performed on the same MIN-6 cells after ZIGIR-2 imaging. […] To further analyze MIN-6 cells that were differentially labeled with ZIGIR-2, and to address whether ZIGIR-2 staining correlated with other cellular organelles, MIN6 cells were separated into ZIGIR-2-High and ZIGIR-2-Low subsets based on ZIGIR-2 fluorescence intensity using fluorescence-activated cell sorting (FACS; FIG. 7E). The sorted cells were then compared by immunofluorescence using antibodies against insulin, NPC-1 (a marker protein of late endosome/lysosome; Patel et al., 1999 and Higgins et al., 1999), or GM130 (a Golgi marker protein; Nakamura et al., 1995). […]
To correlate the intensity of ZIGIR-2 labeling and cellular insulin content by imaging, MIN-6 cells were first labeled and seeded on a 35 mm MatTek glass dish with ZIGIR-2. Cells were then imaged on a wide field fluorescence microscope (Axiovert 200, Carl Zeiss) equipped with an EMCCD camera (iXon 897, Andor) through a 40× oil objective. […]

[2] = test system: T47D human breast cancer cells, H1299 lung carcinoma and HEK293 human embryonic kidney cells; assay: ZIGIR-2 imaging in cells not known to contain Zn^2+ rich secretory granules; assay type: cell-based
Protocol: To better understand the granular labeling specificity of ZIGIR-2, a number of mammalian cells were imaged that are not known to contain Zn^2+ rich secretory granules. These included T47D human breast cancer cells, H1299 lung carcinoma and HEK293 human embryonic kidney cells. […] However, after adding Zn/pyrithione, distinct ZIGIR-2 positive spots emerged in these cells (FIG. 8B). Subsequently, LysoTracker Green (LTG), an acidotropic fluorescent tracer based on BODIPY dye, was added to label acidic granules.
MIN-6 β cells were cultured as previously described (Li et al., 2011). HEK293 cells were cultured in DMEM medium supplemented with 10% FBS and 1% Penicillin/Streptomycin. T47D cells were cultured in RPMI-1640 medium supplemented with 10% FBS, 0.5% non-essential amino acids, 1 mM sodium pyruvate, 10 μg/mL geneticin and 0.01 mg/mL insulin. H1299 cells were cultured in RPMI-1640 medium supplemented with 10% FBS. All cells were maintained at 37° C. with 5% CO2. For cell imaging, cells were seeded in 35-mm petri dishes with glass bottoms (MatTek) and cultured for ˜24 hours to reach ˜50% confluence. Prior to labeling, cells were washed with a secretion assay buffer (SAB) containing 114 mM NaCl, 4.7 mM KCl, 1.2 mM KH2PO4, 2.5 mM CaCl2, 1.16 mM MgSO4, 3 mM glucose, and 20 mM Hepes (pH 7.4). […] ZIGIR colocalization with LysoTracker Green was analyzed and quantified with JACoP plugin of ImageJ.

[3] = Zn^2+ titration of ZIGIRs by fluorescence emission (Hill plot); assay type: binding
Protocol: as §1

absorption maximum [1]: around 555 nm
emission maximum [1]: ~580 nm
λabd^max ([1]; Zn^2+ bound): 549 nm
λem^max ([1]; Zn^2+ bound): 580 nm
ϕfl (fluorescence quantum yield) ([1]; Zn^2+ bound): 0.26
ε (extinction coefficient) ([1]; Zn^2+ bound): 93,600
ϕfl × ε (fluorescence brightness) ([1]; Zn^2+ bound): 24,336
λabd^max ([1]; Zn^2+ free): 546 nm
λem^max ([1]; Zn^2+ free): 572 nm
ϕfl (fluorescence quantum yield) ([1]; Zn^2+ free): 0.008
ε (extinction coefficient) ([1]; Zn^2+ free): 88,400
ϕfl × ε (fluorescence brightness) ([1]; Zn^2+ free): 707
Kd ([3]; 100 mM HEPES pH 7.4): 310 nM
Kd ([3]; Table 2): 810 nM
Compound: CN(C)c1ccc2c(-c3ccc(NCCN(CCc4ccccn4)Cc4ccccn4)cc3C(=O)[O-])c3ccc(=[N+](C)C)cc-3oc2c1 [ZIGIR-2]
Pearson's R value of cellular ZIGIR-2 intensity versus insulin immunofluorescence (MIN-6 cells): 0.79±0.05
overlap of ZIGIR-2 positive puncta with LysoTracker Green marked granules ([2]; after Zn/pyrithione): overlapped remarkably well
fluorescence signal in basal SAB buffer ([2]; same dye loading and imaging conditions as MIN6 cells): barely any ZIGIR-2 fluorescence signal was detected
FC (fold change in fluorescence brightness ϕfl×ε from Zn^2+-free to Zn^2+-bound state) [3]: 34
Zn^2+ response (fold change) ([3]; Table 2): 34×
